Where a name gives a salt, the structure may show the parent alone.

What is called Ki is the equilibrium dissociation constant of an inhibitor or competing ligand from its target.

Sequence of PI3Kα (alpha) (P42336 whole entry): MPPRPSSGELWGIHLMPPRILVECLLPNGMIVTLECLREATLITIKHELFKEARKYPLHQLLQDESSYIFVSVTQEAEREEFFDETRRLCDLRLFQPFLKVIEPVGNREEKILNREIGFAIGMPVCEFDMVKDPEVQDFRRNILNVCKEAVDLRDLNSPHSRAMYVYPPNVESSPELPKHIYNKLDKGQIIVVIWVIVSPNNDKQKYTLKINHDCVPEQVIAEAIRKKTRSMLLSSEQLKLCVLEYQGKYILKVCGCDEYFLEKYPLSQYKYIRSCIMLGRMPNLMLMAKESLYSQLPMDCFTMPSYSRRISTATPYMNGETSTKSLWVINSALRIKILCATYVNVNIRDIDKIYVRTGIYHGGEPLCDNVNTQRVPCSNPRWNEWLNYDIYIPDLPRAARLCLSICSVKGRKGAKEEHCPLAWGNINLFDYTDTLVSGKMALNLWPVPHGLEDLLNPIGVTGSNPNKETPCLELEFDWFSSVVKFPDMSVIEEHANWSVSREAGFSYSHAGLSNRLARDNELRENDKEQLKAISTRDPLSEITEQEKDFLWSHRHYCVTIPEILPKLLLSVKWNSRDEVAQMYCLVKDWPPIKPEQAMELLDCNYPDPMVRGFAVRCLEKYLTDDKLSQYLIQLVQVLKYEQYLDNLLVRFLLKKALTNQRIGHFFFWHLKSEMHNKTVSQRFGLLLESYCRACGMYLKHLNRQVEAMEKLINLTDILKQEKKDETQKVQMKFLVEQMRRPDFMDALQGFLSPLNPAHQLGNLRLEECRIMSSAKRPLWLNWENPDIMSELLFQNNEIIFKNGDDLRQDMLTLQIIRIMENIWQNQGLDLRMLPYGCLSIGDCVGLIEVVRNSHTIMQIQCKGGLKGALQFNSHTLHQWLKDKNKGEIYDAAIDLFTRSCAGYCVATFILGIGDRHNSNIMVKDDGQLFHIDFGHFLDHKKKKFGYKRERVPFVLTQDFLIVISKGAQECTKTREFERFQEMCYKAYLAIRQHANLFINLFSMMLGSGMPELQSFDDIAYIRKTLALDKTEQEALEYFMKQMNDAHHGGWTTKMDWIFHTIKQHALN
Sequence of PI3Kα (alpha) (P27986 whole entry partner): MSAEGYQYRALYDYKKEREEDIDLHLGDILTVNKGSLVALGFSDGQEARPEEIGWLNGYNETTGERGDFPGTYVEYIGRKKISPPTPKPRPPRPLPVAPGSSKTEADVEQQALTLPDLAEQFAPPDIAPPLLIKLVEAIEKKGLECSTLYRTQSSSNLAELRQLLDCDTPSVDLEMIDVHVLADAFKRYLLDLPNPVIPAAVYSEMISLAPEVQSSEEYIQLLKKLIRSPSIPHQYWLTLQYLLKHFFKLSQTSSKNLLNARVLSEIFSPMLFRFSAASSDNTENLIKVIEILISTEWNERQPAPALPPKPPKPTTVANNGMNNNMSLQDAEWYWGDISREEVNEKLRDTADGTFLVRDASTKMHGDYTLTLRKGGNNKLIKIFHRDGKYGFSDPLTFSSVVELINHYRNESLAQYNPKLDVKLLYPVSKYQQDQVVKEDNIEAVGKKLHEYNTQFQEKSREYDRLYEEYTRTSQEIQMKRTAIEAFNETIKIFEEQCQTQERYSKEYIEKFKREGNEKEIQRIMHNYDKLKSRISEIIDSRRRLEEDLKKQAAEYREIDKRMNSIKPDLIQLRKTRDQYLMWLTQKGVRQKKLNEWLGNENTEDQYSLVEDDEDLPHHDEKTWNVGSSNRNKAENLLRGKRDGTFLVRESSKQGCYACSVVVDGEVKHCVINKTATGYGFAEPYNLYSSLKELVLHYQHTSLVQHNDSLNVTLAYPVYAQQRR

The target in the assay is PI3Kα (alpha) (Homo sapiens (Human), UniProt P42336). The assay can be described thus: p110α (alpha) PI3K Binding Assay (ADP-Glo lipid kinase reaction). The assay is classed as biochemical. Particulars: PI3K alpha 0.2 nM, ATP 40 μM, PIP2:3PS 50 μM, 120 min, room temperature; Ki by Morrison Equation; read-out: PI3Kα-(alpha) ATP (Ki) micromolar. Put shortly:
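Enzyme with PIP2:3PS lipid substrate and ATP/MgCl2 in 50 mM HEPES, 50 mM NaCl, 3 mM MgCl2, 0.01% BSA, 1% DMSO, 120 min at room temperature. ADP formed detected by ADP-Glo luminescence. Ki from 10-point dose-response curves via the Morrison equation.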
For orientation: ADP-Glo first removes unused ATP, then detects ADP through luciferase.
For the compound `N#CC1CCCN(c2nc3cc(NC(C(N)=O)C4CC4)cc4c3n2CCCO4)C1` [Example 174, (S)-2-[1-(3-Cyanopiperidin-1-yl)-8,9-dihydro-7H-6-oxa-2,9a-diazabenzo[cd]azulen-4-ylamino]-2-cyclopropylacetamide], the Ki was found to be 262 nM.

On to `CS(=O)(=O)c1cncc(-c2nc3cc(N[C@H](C(N)=O)C4CC4)cc4c3n2CCCO4)c1` [Example 175, (S)-2-Cyclopropyl-2-((1-(5-(methylsulfonyl)pyridin-3-yl)-8,9-dihydro-7H-6-oxa-2,9a-diazabenzo[cd]azulen-4-yl)amino)acetamide], for which the inhibition constant Ki was 26 nM.

Regarding `NC(=O)[C@@H](Nc1cc2c3c(c1)nc(-c1ccnc4[nH]cnc14)n3CCCO2)C1CC1` [Example 176, (S)-2-((1-(3H-Imidazo[4,5-b]pyridin-7-yl)-8,9-dihydro-7H-6-oxa-2,9a-diazabenzo[cd]azulen-4-yl)amino)-2-cyclopropylacetamide], the Ki worked out at 326 nM.

`NC(=O)[C@@H](Nc1cc2c3c(c1)nc(-c1ccnc4sccc14)n3CCCO2)C1CC1` [Example 177, (S)-2-Cyclopropyl-2-((1-(thieno[2,3-b]pyridin-4-yl)-8,9-dihydro-7H-6-oxa-2,9a-diazabenzo[cd]azulen-4-yl)amino)acetamide]: the Ki is 234 nM.

For `NC(=O)[C@@H](Nc1cc2c3c(c1)nc(-c1ccc4ncsc4c1)n3CCCO2)C1CC1` [Example 178, (S)-2-((1-(Benzo[d]thiazol-6-yl)-8,9-dihydro-7H-6-oxa-2,9a-diazabenzo[cd]azulen-4-yl)amino)-2-cyclopropylacetamide], the inhibitory constant (Ki) came out at 32.2 nM.

`NC(=O)[C@@H](Nc1cc2c3c(c1)nc(N1CCc4nccnc4C1)n3CCCO2)C1CC1` [Example 179, (S)-2-Cyclopropyl-2-((1-(7,8-dihydropyrido[3,4-b]pyrazin-6(5H)-yl)-8,9-dihydro-7H-6-oxa-2,9a-diazabenzo[cd]azulen-4-yl)amino)acetamide]: the Ki came out at 154 nM.

Consider `NC(=O)[C@@H](Nc1cc2c3c(c1)nc(N1CCCOCC1)n3CCCO2)C1CC1` [Example 180, (S)-2-((1-(1,4-Oxazepan-4-yl)-8,9-dihydro-7H-6-oxa-2,9a-diazabenzo[cd]azulen-4-yl)amino)-2-cyclopropylacetamide], for which the Ki was 664 nM.

On to `CC(C)(C(N)=O)n1cc(-c2nc3cc(N[C@H](C(N)=O)C4CC4)cc4c3n2CCCO4)cn1` [Example 181, 2-(4-{4-[((S)-Carbamoylcyclopropylmethyl)amino]-8,9-dihydro-7H-6-oxa-2,9a-diazabenzo[cd]azulen-1-yl}pyrazol-1-yl)isobutyramide formic acid salt], for which the Ki is 195 nM.

Consider `NC(=O)[C@@H](Nc1cc2c3c(c1)nc(N1CCCC(O)C1)n3CCCO2)C1CC1` (stereo partly drawn) [Example 182, (S)-2-Cyclopropyl-2-[1-(3-hydroxypiperidin-1-yl)-8,9-dihydro-7H-6-oxa-2,9a-diazabenzo[cd]azulen-4-ylamino]acetamide], for which the Ki was determined as 398 nM.

In the case of `NC(=O)[C@@H](Nc1cc2c3c(c1)nc(-c1ccc4sc(N)nc4c1)n3CCCO2)C1CC1` [Example 184, (S)-2-((1-(2-Aminobenzo[d]thiazol-5-yl)-8,9-dihydro-7H-6-oxa-2,9a-diazabenzo[cd]azulen-4-yl)amino)-2-cyclopropylacetamide], the Ki came out at 0.491 nM.

Regarding `CNc1nc2cc(-c3nc4cc(N[C@@H](C)C(N)=O)cc5c4n3CCCO5)ccc2o1` [Example 185, (S)-2-((1-(2-(Methylamino)benzo[d]oxazol-5-yl)-8,9-dihydro-7H-6-oxa-2,9a-diazabenzo[cd]azulen-4-yl)amino)propanamide], the Ki amounted to 2.01 nM.

On to `CNc1nc2cc(-c3nc4cc(N5CCC[C@H]5C(N)=O)cc5c4n3CCCO5)ccc2o1` [Example 186, (S)-1-(1-(2-(methylamino)benzo-[d]oxazol-5-yl)-8,9-dihydro-7H-6-oxa-2,9a-diazabenzo[cd]azulen-4-yl)pyrrolidine-2-carboxamide], for which the Ki came to 6.93 nM.

Turning to `NC(=O)[C@@H](Nc1cc2c3c(c1)nc(-c1ccc4nc(N)cnc4c1)n3CCCO2)C1CC1` [Example 187, (S)-2-((1-(2-Aminoquinoxalin-6-yl)-8,9-dihydro-7H-6-oxa-2,9a-diazabenzo[cd]azulen-4-yl)amino)-2-cyclopropylacetamide], the Ki was found to be 0.056 nM.

With `NC(=O)c1ccc(-c2nc3cc(N[C@H](C(N)=O)C4CC4)cc4c3n2CCCO4)cc1F` [Example 188, (S)-4-(4-((2-Amino-1-cyclopropyl-2-oxoethyl)amino)-8,9-dihydro-7H-6-oxa-2,9a-diazabenzo[cd]azulen-1-yl)-2-fluorobenzamide], the Ki stood at 81.4 nM.

For `NC(=O)[C@@H](Nc1cc2c3c(c1)nc(-c1ccc(-c4nc[nH]n4)cc1)n3CCCO2)C1CC1` [Example 190, (S)-2-((1-(4-(1H-1,2,4-Triazol-3-yl)phenyl)-8,9-dihydro-7H-6-oxa-2,9a-diazabenzo[cd]azulen-4-yl)amino)-2-cyclopropylacetamide], the Ki came out at 0.15 nM.

`NC(=O)c1ccc(-c2nc3cc(N[C@H](C(N)=O)C4CC4)cc4c3n2CCCO4)cn1` [Example 191, (S)-5-(4-((2-Amino-1-cyclopropyl-2-oxoethyl)amino)-8,9-dihydro-7H-6-oxa-2,9a-diazabenzo[cd]azulen-1-yl)picolinamide]: the Ki was determined as 105 nM.

With `Nc1nc2cc(-c3nc4cc(NC5CC(F)(F)C5)cc5c4n3CCCO5)ccc2o1` [Example 192, 1-(2-Aminobenzo[d]oxazol-5-yl)-N-(3,3-difluorocyclobutyl)-8,9-dihydro-7H-6-oxa-2,9a-diazabenzo[cd]azulen-4-amine], the inhibition constant Ki is 1.64 nM.

In the case of `Nc1nc2cc(-c3nc4c(F)c(Br)cc5c4n3CCCO5)ccc2o1` [Example 193, 5-(4-Bromo-3-fluoro-8,9-dihydro-7H-6-oxa-2,9a-diazabenzo[cd]azulen-1-yl)benzo[d]oxazol-2-amine], the Ki is 5.17 nM.

As to `NC(=O)[C@@H]1CCCN1c1cc2c3c(nc(-c4ccc5oc(N)nc5c4)n3CCCO2)c1F` [Example 194, (S)-1-(1-(2-Aminobenzo[d]oxazol-5-yl)-3-fluoro-8,9-dihydro-7H-6-oxa-2,9a-diazabenzo[cd]azulen-4-yl)pyrrolidine-2-carb oxamide], the Ki came to 0.026 nM.

Consider `NC(=O)[C@@H](Nc1cc2c3c(c1)nc(-c1ccnc4c1OCO4)n3CCCO2)C1CC1` [Example 195, (S)-2-((1-([1,3]Dioxolo[4,5-b]pyridin-7-yl)-8,9-dihydro-7H-6-oxa-2,9a-diazabenzo[cd]azulen-4-yl)amino)-2-cyclopropylacetamide], for which the Ki amounted to 194 nM.

Take `NC(=O)[C@@H](Nc1cc2c3c(c1)nc(-c1ccc4oc(=O)[nH]c4c1)n3CCCO2)C1CC1` [Example 196, (S)-2-Cyclopropyl-2-((1-(2-oxo-2,3-dihydrobenzo[d]oxazol-5-yl)-8,9-dihydro-7H-6-oxa-2,9a-diazabenzo[cd]azulen-4-yl)amino)acetamide]: the Ki came out at 314 nM.

For the compound `NC(=O)[C@@H](Nc1cc2c3c(c1)nc(-c1ccc4nc(Cl)nn4c1)n3CCCO2)C1CC1` [Example 197, (S)-2-((1-(2-Chloro-[1,2,4]triazolo[1,5-a]pyridin-6-yl)-8,9-dihydro-7H-6-oxa-2,9a-diazabenzo[cd]azulen-4-yl)amino)-2-cyclopropylacetamide], the Ki came out at 27.2 nM.

Turning to `OCc1cnc2cc(-c3nc4cc(Br)cc5c4n3CCCO5)ccc2n1` [Example 198, (6-(4-Bromo-8,9-dihydro-7H-6-oxa-2,9a-diazabenzo[cd]azulen-1-yl)quinoxalin-2-yl)methanol], the Ki worked out at 677 nM.

Regarding `NC(=O)[C@@H]1CCCN1c1cc2c3c(c1)nc(-c1ccc4[nH]cnc4c1)n3CCCO2` [Example 199, (S)-1-(1-(1H-Benzo[d]imidazol-5-yl)-8,9-dihydro-7H-6-oxa-2,9a-diazabenzo[cd]azulen-4-yl)pyrrolidine-2-carboxamide], the Ki is 33.2 nM.

In the case of `NC(=O)[C@@H](Nc1cc2c3c(c1)nc(-c1ccc4nc(N)nn4c1)n3CCCO2)C1CC1` [Example 201, (S)-2-((1-(2-Amino-[1,2,4]triazolo[1,5-a]pyridin-6-yl)-8,9-dihydro-7H-6-oxa-2,9a-diazabenzo[cd]azulen-4-yl)amino)-2-cyclopropylacetamide], the inhibition constant (Ki) was determined as 0.717 nM.

On to `C[C@H](Oc1cc2c3c(c1)nc(-c1ccc4oc(N)nc4c1)n3CCCCO2)C(N)=O` [Example 204, (S)-2-((1-(2-Aminobenzo[d]oxazol-5-yl)-7,8,9,10-tetrahydro-6-oxa-2,10a-diazacycloocta[cd]inden-4-yl)oxy)propanamide], for which the Ki is under 0.02 nM.

For the compound `Cc1cc(-c2nc3cc(N[C@H](C(N)=O)C4CC4)cc4c3n2CCCO4)cc2nc(N)oc12` [Example 205, (S)-2-((1-(2-Amino-7-methylbenzo[d]oxazol-5-yl)-8,9-dihydro-7H-6-oxa-2,9a-diazabenzo[cd]azulen-4-yl)amino)-2-cyclopropylacetamide], the Ki was determined as 0.191 nM.

For the compound `NC(=O)[C@@H]1CCCN1c1cc2c3c(c1)nc(-c1ccnc4[nH]nnc14)n3CCCO2` [Example 206, (S)-1-(1-(3H-[1,2,3]Triazolo[4,5-b]pyridin-7-yl)-8,9-dihydro-7H-6-oxa-2,9a-diazabenzo[cd]azulen-4-yl)pyrrolidine-2-carb oxamide], the Ki amounted to 25.9 nM.

In the case of `NC(=O)[C@@H](Nc1cc2c3c(c1)nc(-c1ccc4nc(N)oc4c1)n3CCCO2)C1CC1` [Example 207, (S)-2-((1-(2-Aminobenzo[d]oxazol-6-yl)-8,9-dihydro-7H-6-oxa-2,9a-diazabenzo[cd]azulen-4-yl)amino)-2-cyclopropylacetamide], the inhibition constant Ki worked out at 0.988 nM.

Take `NC(=O)[C@@H](Nc1cc2c3c(c1)nc(-c1ccc4oc(N)nc4c1)n3CCO2)C1CC1` [Example 208, (S)-2-((2-(2-Aminobenzo[d]oxazol-5-yl)-3,4-dihydro-5-oxa-1,2a-diazaacenaphthylen-7-yl)amino)-2-cyclopropylacetamide]: the Ki is under 0.02 nM.

(Values after patent US10065970B2 (Genentech, Inc., priority 2015, dated 2018).)
